Laboratory results reported in the NIST ThermoML archive (doi:10.1021/je500696p).
± gives the expanded uncertainty stated by the source.

Columns and labels:
[1] = xn = mol fraction of the nth substance listed; conditions: 100 kPa, Liquid, Vibrating tube method
[2] = excess molar enthalpy (molar enthalpy of mixing); xn = mol fraction of the nth substance listed; conditions: 100 kPa, Liquid, Calvet calorimetry

CCCC[N+](C)(C)C.O=S(=O)([N-]S(=O)(=O)C(F)(F)F)C(F)(F)F [butyltrimethylammonium bis(trifluoromethylsulfonyl)imide] + CCCO
mass density ([1]; 293.15 K, x2 = 0): 1397.1 ± 4.2 kg/m3
mass density ([1]; 293.15 K, x2 = 0.1273): 1375 ± 4.1 kg/m3
mass density ([1]; 293.15 K, x2 = 0.2596): 1346.9 ± 4.1 kg/m3
mass density ([1]; 293.15 K, x2 = 0.3787): 1315 ± 4 kg/m3
mass density ([1]; 293.15 K, x2 = 0.4996): 1273.9 ± 3.8 kg/m3
mass density ([1]; 293.15 K, x2 = 0.6368): 1210.1 ± 3.7 kg/m3
mass density ([1]; 293.15 K, x2 = 0.7624): 1126 ± 3.4 kg/m3
mass density ([1]; 293.15 K, x2 = 0.8787): 1008.7 ± 3.1 kg/m3
mass density ([1]; 293.15 K, x2 = 0.9498): 903.9 ± 2.7 kg/m3
mass density ([1]; 293.15 K, x2 = 0.9799): 847.3 ± 2.5 kg/m3
mass density ([1]; 295.15 K, x2 = 0): 1395.3 ± 4.2 kg/m3
mass density ([1]; 295.15 K, x2 = 0.1273): 1373.2 ± 4.1 kg/m3
mass density ([1]; 295.15 K, x2 = 0.2596): 1345.1 ± 4.1 kg/m3
mass density ([1]; 295.15 K, x2 = 0.3787): 1313.2 ± 4 kg/m3
mass density ([1]; 295.15 K, x2 = 0.4996): 1272.1 ± 3.8 kg/m3
mass density ([1]; 295.15 K, x2 = 0.6368): 1208.3 ± 3.6 kg/m3
mass density ([1]; 295.15 K, x2 = 0.7624): 1124.2 ± 3.4 kg/m3
mass density ([1]; 295.15 K, x2 = 0.8787): 1006.9 ± 3 kg/m3
mass density ([1]; 295.15 K, x2 = 0.9498): 902.2 ± 2.7 kg/m3
mass density ([1]; 295.15 K, x2 = 0.9799): 845.7 ± 2.5 kg/m3
mass density ([1]; 298.15 K, x2 = 0): 1392.7 ± 4.2 kg/m3
mass density ([1]; 298.15 K, x2 = 0.1273): 1370.6 ± 4.1 kg/m3
mass density ([1]; 298.15 K, x2 = 0.2596): 1342.4 ± 4 kg/m3
mass density ([1]; 298.15 K, x2 = 0.3787): 1310.6 ± 3.9 kg/m3
mass density ([1]; 298.15 K, x2 = 0.4996): 1269.4 ± 3.8 kg/m3
mass density ([1]; 298.15 K, x2 = 0.6368): 1205.6 ± 3.6 kg/m3
mass density ([1]; 298.15 K, x2 = 0.7624): 1121.4 ± 3.4 kg/m3
mass density ([1]; 298.15 K, x2 = 0.8787): 1004.3 ± 3 kg/m3
mass density ([1]; 298.15 K, x2 = 0.9498): 899.7 ± 2.7 kg/m3
mass density ([1]; 298.15 K, x2 = 0.9799): 843.2 ± 2.5 kg/m3
mass density ([1]; 303.15 K, x2 = 0): 1388.3 ± 4.2 kg/m3
mass density ([1]; 303.15 K, x2 = 0.1273): 1366.2 ± 4.1 kg/m3
mass density ([1]; 303.15 K, x2 = 0.2596): 1338 ± 4 kg/m3
mass density ([1]; 303.15 K, x2 = 0.3787): 1306.1 ± 3.9 kg/m3
mass density ([1]; 303.15 K, x2 = 0.4996): 1264.9 ± 3.8 kg/m3
mass density ([1]; 303.15 K, x2 = 0.6368): 1201.1 ± 3.6 kg/m3
mass density ([1]; 303.15 K, x2 = 0.7624): 1117 ± 3.4 kg/m3
mass density ([1]; 303.15 K, x2 = 0.8787): 999.9 ± 3 kg/m3
mass density ([1]; 303.15 K, x2 = 0.9498): 895.5 ± 2.7 kg/m3
mass density ([1]; 303.15 K, x2 = 0.9799): 839.1 ± 2.5 kg/m3
mass density ([1]; 308.15 K, x2 = 0): 1384 ± 4.2 kg/m3
mass density ([1]; 308.15 K, x2 = 0.1273): 1361.8 ± 4.1 kg/m3
mass density ([1]; 308.15 K, x2 = 0.2596): 1333.5 ± 4 kg/m3
mass density ([1]; 308.15 K, x2 = 0.3787): 1301.6 ± 3.9 kg/m3
mass density ([1]; 308.15 K, x2 = 0.4996): 1260.4 ± 3.8 kg/m3
mass density ([1]; 308.15 K, x2 = 0.6368): 1196.5 ± 3.6 kg/m3
mass density ([1]; 308.15 K, x2 = 0.7624): 1112.5 ± 3.3 kg/m3
mass density ([1]; 308.15 K, x2 = 0.8787): 995.5 ± 3 kg/m3
mass density ([1]; 308.15 K, x2 = 0.9498): 891.2 ± 2.7 kg/m3
mass density ([1]; 308.15 K, x2 = 0.9799): 835 ± 2.5 kg/m3
mass density ([1]; 313.15 K, x2 = 0): 1379.6 ± 4.2 kg/m3
mass density ([1]; 313.15 K, x2 = 0.1273): 1357.4 ± 4.1 kg/m3
mass density ([1]; 313.15 K, x2 = 0.2596): 1329.1 ± 4 kg/m3
mass density ([1]; 313.15 K, x2 = 0.3787): 1297.2 ± 3.9 kg/m3
mass density ([1]; 313.15 K, x2 = 0.4996): 1255.9 ± 3.8 kg/m3
mass density ([1]; 313.15 K, x2 = 0.6368): 1192 ± 3.6 kg/m3
mass density ([1]; 313.15 K, x2 = 0.7624): 1107.9 ± 3.3 kg/m3
mass density ([1]; 313.15 K, x2 = 0.8787): 991.1 ± 3 kg/m3
mass density ([1]; 313.15 K, x2 = 0.9498): 887 ± 2.7 kg/m3
mass density ([1]; 313.15 K, x2 = 0.9799): 830.8 ± 2.5 kg/m3
mass density ([1]; 318.15 K, x2 = 0): 1375.2 ± 4.2 kg/m3
mass density ([1]; 318.15 K, x2 = 0.1273): 1353 ± 4.1 kg/m3
mass density ([1]; 318.15 K, x2 = 0.2596): 1324.7 ± 4 kg/m3
mass density ([1]; 318.15 K, x2 = 0.3787): 1292.7 ± 3.9 kg/m3
mass density ([1]; 318.15 K, x2 = 0.4996): 1251.4 ± 3.8 kg/m3
mass density ([1]; 318.15 K, x2 = 0.6368): 1187.4 ± 3.6 kg/m3
mass density ([1]; 318.15 K, x2 = 0.7624): 1103.4 ± 3.3 kg/m3
mass density ([1]; 318.15 K, x2 = 0.8787): 986.7 ± 3 kg/m3
mass density ([1]; 318.15 K, x2 = 0.9498): 882.6 ± 2.7 kg/m3
mass density ([1]; 318.15 K, x2 = 0.9799): 826.6 ± 2.5 kg/m3
mass density ([1]; 323.15 K, x2 = 0): 1370.9 ± 4.1 kg/m3
mass density ([1]; 323.15 K, x2 = 0.1273): 1348.6 ± 4.1 kg/m3
mass density ([1]; 323.15 K, x2 = 0.2596): 1320.3 ± 4 kg/m3
mass density ([1]; 323.15 K, x2 = 0.3787): 1288.2 ± 3.9 kg/m3
mass density ([1]; 323.15 K, x2 = 0.4996): 1246.9 ± 3.8 kg/m3
mass density ([1]; 323.15 K, x2 = 0.6368): 1182.9 ± 3.6 kg/m3
mass density ([1]; 323.15 K, x2 = 0.7624): 1098.8 ± 3.3 kg/m3
mass density ([1]; 323.15 K, x2 = 0.8787): 982.2 ± 3 kg/m3
mass density ([1]; 323.15 K, x2 = 0.9498): 878.3 ± 2.6 kg/m3
mass density ([1]; 323.15 K, x2 = 0.9799): 822.4 ± 2.5 kg/m3
mass density ([1]; 328.15 K, x2 = 0): 1366.6 ± 4.1 kg/m3
mass density ([1]; 328.15 K, x2 = 0.1273): 1344.3 ± 4.1 kg/m3
mass density ([1]; 328.15 K, x2 = 0.2596): 1315.9 ± 4 kg/m3
mass density ([1]; 328.15 K, x2 = 0.3787): 1283.8 ± 3.9 kg/m3
mass density ([1]; 328.15 K, x2 = 0.4996): 1242.4 ± 3.7 kg/m3
mass density ([1]; 328.15 K, x2 = 0.6368): 1178.3 ± 3.5 kg/m3
mass density ([1]; 328.15 K, x2 = 0.7624): 1094.3 ± 3.3 kg/m3
mass density ([1]; 328.15 K, x2 = 0.8787): 977.7 ± 2.9 kg/m3
mass density ([1]; 328.15 K, x2 = 0.9498): 873.9 ± 2.6 kg/m3
mass density ([1]; 328.15 K, x2 = 0.9799): 818 ± 2.5 kg/m3
mass density ([1]; 333.15 K, x2 = 0): 1362.3 ± 4.1 kg/m3
mass density ([1]; 333.15 K, x2 = 0.1273): 1339.9 ± 4 kg/m3
mass density ([1]; 333.15 K, x2 = 0.2596): 1311.5 ± 4 kg/m3
mass density ([1]; 333.15 K, x2 = 0.3787): 1279.4 ± 3.9 kg/m3
mass density ([1]; 333.15 K, x2 = 0.4996): 1237.9 ± 3.7 kg/m3
mass density ([1]; 333.15 K, x2 = 0.6368): 1173.8 ± 3.5 kg/m3
mass density ([1]; 333.15 K, x2 = 0.7624): 1089.7 ± 3.3 kg/m3
mass density ([1]; 333.15 K, x2 = 0.8787): 973.1 ± 2.9 kg/m3
mass density ([1]; 333.15 K, x2 = 0.9498): 869.5 ± 2.6 kg/m3
mass density ([1]; 333.15 K, x2 = 0.9799): 813.7 ± 2.4 kg/m3
excess molar enthalpy ([2]; 308.15 K, x2 = 0.1224): 0.223 ± 0.00908 kcal/mol
excess molar enthalpy ([2]; 308.15 K, x2 = 0.2622): 0.436 ± 0.0179 kcal/mol
excess molar enthalpy ([2]; 308.15 K, x2 = 0.2665): 0.442 ± 0.0182 kcal/mol
excess molar enthalpy ([2]; 308.15 K, x2 = 0.374): 0.556 ± 0.0227 kcal/mol
excess molar enthalpy ([2]; 308.15 K, x2 = 0.4927): 0.622 ± 0.0263 kcal/mol
excess molar enthalpy ([2]; 308.15 K, x2 = 0.5007): 0.623 ± 0.0263 kcal/mol
excess molar enthalpy ([2]; 308.15 K, x2 = 0.5108): 0.627 ± 0.0263 kcal/mol
excess molar enthalpy ([2]; 308.15 K, x2 = 0.5118): 0.63 ± 0.0263 kcal/mol
excess molar enthalpy ([2]; 308.15 K, x2 = 0.6191): 0.606 ± 0.0239 kcal/mol
excess molar enthalpy ([2]; 308.15 K, x2 = 0.744): 0.532 ± 0.0217 kcal/mol
excess molar enthalpy ([2]; 308.15 K, x2 = 0.7466): 0.533 ± 0.0217 kcal/mol
excess molar enthalpy ([2]; 308.15 K, x2 = 0.7505): 0.521 ± 0.0213 kcal/mol
excess molar enthalpy ([2]; 308.15 K, x2 = 0.8709): 0.354 ± 0.0143 kcal/mol
excess molar enthalpy ([2]; 313.15 K, x2 = 0.113): 0.187 ± 0.00765 kcal/mol
excess molar enthalpy ([2]; 313.15 K, x2 = 0.2393): 0.374 ± 0.0153 kcal/mol
excess molar enthalpy ([2]; 313.15 K, x2 = 0.2549): 0.385 ± 0.0158 kcal/mol
excess molar enthalpy ([2]; 313.15 K, x2 = 0.3933): 0.518 ± 0.021 kcal/mol
excess molar enthalpy ([2]; 313.15 K, x2 = 0.4936): 0.569 ± 0.0232 kcal/mol
excess molar enthalpy ([2]; 313.15 K, x2 = 0.4959): 0.567 ± 0.0232 kcal/mol
excess molar enthalpy ([2]; 313.15 K, x2 = 0.499): 0.568 ± 0.0232 kcal/mol
excess molar enthalpy ([2]; 313.15 K, x2 = 0.6245): 0.564 ± 0.0229 kcal/mol
excess molar enthalpy ([2]; 313.15 K, x2 = 0.7406): 0.507 ± 0.0206 kcal/mol
excess molar enthalpy ([2]; 313.15 K, x2 = 0.8666): 0.369 ± 0.0151 kcal/mol
excess molar enthalpy ([2]; 323.15 K, x2 = 0.1187): 0.185 ± 0.00765 kcal/mol
excess molar enthalpy ([2]; 323.15 K, x2 = 0.2569): 0.406 ± 0.0165 kcal/mol
excess molar enthalpy ([2]; 323.15 K, x2 = 0.2694): 0.422 ± 0.0172 kcal/mol
excess molar enthalpy ([2]; 323.15 K, x2 = 0.3969): 0.538 ± 0.022 kcal/mol
excess molar enthalpy ([2]; 323.15 K, x2 = 0.527): 0.6 ± 0.0239 kcal/mol
excess molar enthalpy ([2]; 323.15 K, x2 = 0.5431): 0.611 ± 0.0239 kcal/mol
excess molar enthalpy ([2]; 323.15 K, x2 = 0.6214): 0.598 ± 0.0239 kcal/mol
excess molar enthalpy ([2]; 323.15 K, x2 = 0.7499): 0.548 ± 0.0222 kcal/mol
excess molar enthalpy ([2]; 323.15 K, x2 = 0.8707): 0.413 ± 0.0167 kcal/mol
